# Laboratory results from publication PMC8097466, “In Vivo Targeting of Escherichia coli with Vancomycin-Arginine” (Antimicrobial Agents and Chemotherapy, 2021).
# Read-outs that look alike come from different tables or passages of the source.
# Tests used:
# [1] = test system: E. coli UTI89; test: 24-h thigh muscle infection model in neutropenic CD-1 mice; type: in vivo, Escherichia coli; details: for Log10 (group geometric mean ± SD CFU/g): n = 5 to 8
# Protocol: (§1) Using a screening-based strategy, preliminary proof-of-concept studies with V-r employed an abbreviated 9-h thigh muscle infection model in male CD-1 mice rendered neutropenic ([21]). To that end, an E. coli ATCC 25922 isolate was inoculated at 9.7 × 10^4 CFU into both thigh muscles per mouse (n = 5 per experimental group). V-r was administered s.c. every 2 h (110 to 880 mg/kg total dose) starting 1 h postinfection. At 9 h, thigh homogenates were prepared, and CFU were enumerated after culture on CLED (cystine-, lactose-, and electrolyte-deficient) agar. […] In a 24-h thigh muscle infection model, E. coli UTI89 was inoculated at 7.8 × 10^4 CFU into one thigh muscle per mouse (n = 5 to 8 per group) and treated with V-r (total dose, 200 to […]) using an every-6-h dosing regimen from 1 h postinfection. […] Overall, V-r caused an ∼4 to 7.5 log10 reduction in bacterial burden, compared with vehicle control, over the entire dose range.
# [2] = Thermodynamic solubility in saline
# [3] = Plasma pharmacokinetics after s.c. administration; design: species or system CD-1 mice; details: mouse, in vivo, sc
# Protocol: Plasma pharmacokinetics (PK) of V-r after subcutaneous (s.c.) administration (20 and 121 mg/kg) was determined in naive male CD-1 mice (n = 3/group) using liquid chromatography-tandem mass spectrometry for analysis with a lower limit of quantitation of 5 ng/ml (Table 3).
# [4] = test system: S. pneumoniae; test: MIC determination in alignment with CLSI guidelines; type: cell-based; details: Streptococcus pneumoniae
# [5] = test system: A. baumannii
# [6] = test system: human renal proximal tubular epithelial cells; test: hRPTEC biomarkers cytotoxicity; details: primary hRPTEC; cell count, nuclear size, DNA structure, mitochondrial mass, mitochondrial membrane potential, phospholipidosis, glutathione content; fetal bovine serum-deficient media
# From the text: (§2) Identity was confirmed by ^1H nuclear magnetic resonance and time of flight mass spectrometry, and HCl content was quantified by ion-exchange chromatography.
# [7] = Plasma protein binding, human
# [8] = test system: A. baumannii; test: microbe, parasite or virus in culture; details: Acinetobacter baumannii
# [9] = test system: E. coli ATCC 25922; test: 9-h thigh muscle infection model in neutropenic CD-1 mice; type: in vivo, Escherichia coli
# Protocol: as §1
# [10] = Plasma protein binding, mouse; type: in vitro ADME
# [11] = test system: human erythrocytes; test: Red blood cell lysis; details: fetal bovine serum-deficient media
# From the text: as §2
# [12] = test system: S. agalactiae; test: MIC determination in alignment with CLSI guidelines; type: cell-based; details: Streptococcus agalactiae
# [13] = test system: E. coli; test: microbe, parasite or virus in culture; details: Escherichia coli
# [14] = test system: HepG2; test: HepG2 cell cytotoxicity; details: fetal bovine serum-deficient media
# From the text: as §2
# [15] = total dose over 24 h 1,272 mg/kg
structure (smiles),measurement,setting,value
O=C(O)c1cn(C2CC2)c2cc(N3CCNCC3)c(F)cc2c1=O [Ciprofloxacin],Reduction from stasis,"[1]; 24-h model, ciprofloxacin group of Table 5 (20 mg/kg total)",1.4 log10
same,Log10 change from vehicle (CFU/g),[1]; total dose over 24 h 20 mg/kg,−6.39 log10 CFU/g
same,Log10 (group geometric mean ± SD CFU/g),[1]; total dose over 24 h 20 mg/kg,3.32 ± 0.14 log10 CFU/g
CN[C@H](CC(C)C)C(=O)N[C@H]1C(=O)N[C@@H](CC(N)=O)C(=O)N[C@H]2C(=O)N[C@H]3C(=O)N[C@H](C(=O)N[C@H](C(=O)N[C@H](CCCNC(=N)N)C(N)=O)c4cc(O)cc(O)c4-c4cc3ccc4O)[C@H](O)c3ccc(c(Cl)c3)Oc3cc2cc(c3O[C@@H]2O[C@H](CO)[C@@H](O)[C@H](O)[C@H]2O[C@H]2C[C@](C)(N)[C@H](O)[C@H](C)O2)Oc2ccc(cc2Cl)[C@H]1O [V-r],solubility thermodynamic,"[2]; saline or isotonic, thermodynamic from solid",373 mg/mL
same,Clearance,[3]; 20 mg/kg,7.8 mL/min/kg
same,Vd,[3]; 20 mg/kg,0.59 L/kg
same,Clearance,[3]; 121 mg/kg,5.4 mL/min/kg
same,Vd,[3]; 121 mg/kg,0.60 L/kg
CN[C@H](CC(C)C)C(=O)N[C@H]1C(=O)N[C@@H](CC(N)=O)C(=O)N[C@H]2C(=O)N[C@H]3C(=O)N[C@H](C(=O)N[C@H](C(=O)O)c4cc(O)cc(O)c4-c4cc3ccc4O)[C@H](O)c3ccc(c(Cl)c3)Oc3cc2cc(c3O[C@@H]2O[C@H](CO)[C@@H](O)[C@H](O)[C@H]2O[C@H]2C[C@](C)(N)[C@H](O)[C@H](C)O2)Oc2ccc(cc2Cl)[C@H]1O [Vancomycin],MIC,[4],0.5 µg/mL
same,MIC,[4]; ATCC49619,0.5 µg/mL
same,Log10 change from vehicle (CFU/g),[1]; [15],−1.23 log10 CFU/g
same,Log10 (group geometric mean ± SD CFU/g),[1]; [15],8.48 ± 1.31 log10 CFU/g
same,TD solubility in saline,"[2]; thermodynamic, in saline",> 50 mg/mL
same,MIC,"[5]; strain B803, clinical isolate (UK) 2016",128 µg/mL
same,MIC,"[5]; strain GS2AB1, multiresistant clinical isolate (southern Europe) 2017",128 µg/mL
same,MIC,"[5]; strain Naval-81, clinical isolate (USA) 2006",128 µg/mL
same,hRPTEC biomarkers (CC50),[6],>100 µM
same,PPB (human % bound),[7],50/50 % bound
same,MIC,[8],128 µg/mL
same,Impact on E. coli burden,"[9]; dose equivalent to the highest dose of V-r, 9 h",failed to significantly impact E. coli burden
same,Log10 change from vehicle (CFU/g),[9]; total dose over 9 h 800 mg/kg,−0.51 log10 CFU/g
same,Log10 (group geometric mean ± SD CFU/g),"[9]; total dose over 9 h 800 mg/kg, n = 5",6.60 ± 0.66 log10 CFU/g
same,PPB (mouse % bound),[10],50/50 % bound
same,Red blood cell lysis (CC50),[11],>750 µM
same,MIC,"[12]; strain B057, clinical isolate (northwest UK)",0.5 µg/mL
same,MIC,"[12]; strain B063, clinical isolate (northwest UK)",1 µg/mL
same,MIC,"[13]; ATCC25922, strain ATCC 25922, CLSI susceptible reference strain",128 µg/mL
same,MIC,"[13]; ATCCBAA2340, strain ATCC BAA-2340, blaKPC, Ambler A",128 µg/mL
same,MIC,"[13]; ATCCBAA2469, strain ATCC BAA-2469, blaNDM-1, Ambler B",128 µg/mL
same,MIC,"[13]; BW25113, strain BW25113, parent strain of BW25113ΔacrB::kan mutant",128 µg/mL
same,MIC,"[13]; NCTC13441, strain NCTC 13441, uropathogenic ST131, blaCTX-M-15, blaOXA-1, blaTEM-1, Ambler A, D",128 µg/mL
same,MIC,"[13]; NCTC13462, strain NCTC 13462, blaCTX-M-2, Ambler A",128 µg/mL
same,MIC,"[13]; NCTC13846, strain NCTC 13846, clinical isolate, bacteremia, mcr-1",64 µg/mL
same,MIC,"[13]; read-out: MICs, all E. coli and A. baumannii strains tested",64 to 256 µg/mL
same,MIC,"[13]; strain AR055, blaNDM-1, blaCMY-6, blaOXA-1, Ambler B, C, D",128 µg/mL
same,MIC,"[13]; strain AR089, blaCMY-2, Ambler C",128 µg/mL
same,MIC,"[13]; strain AR0114, blaTEM-1B, blaKPC-3, Ambler A",256 µg/mL
same,MIC,"[13]; strain AR0137, blaNDM-6, blaOXA-9, blaCMY-42, blaCTX-M-15, Ambler B",128 µg/mL
same,MIC,"[13]; strain AR0150, blaNDM-5, blaTEM-1B, blaCMY-42, Ambler A, B, C",128 µg/mL
same,MIC,"[13]; strain AR0346, mcr-1, ESBL, Ambler A",256 µg/mL
same,MIC,"[13]; strain AR0349, mcr-1, ESBL, Ambler A",128 µg/mL
same,MIC,"[13]; strain AR0350, mcr-1",128 µg/mL
same,MIC,"[13]; strain AR0493, mcr-1, ESBL, Ambler A",256 µg/mL
same,MIC,"[13]; strain AR0494, mcr-1",128 µg/mL
same,MIC,"[13]; strain B096a, clinical isolate (UK) 2016, AmpC, Ambler C",128 µg/mL
same,MIC,"[13]; strain B808, clinical isolate (UK) 2016, blaTEM-1, blaCTX-M-15, Ambler A",256 µg/mL
same,MIC,"[13]; strain ExPEC H5, clinical isolate (UK)",128 µg/mL
same,MIC,"[13]; strain H4/5, clinical isolate, blaTEM-1, blaCTX-M-15, Ambler A",256 µg/mL
same,MIC,"[13]; strain IR3, clinical isolate, blaNDM-1, Ambler B",128 µg/mL
same,MIC,"[13]; strain IR45, clinical isolate, blaNDM-1, Ambler B",128 µg/mL
same,MIC,"[13]; strain IR57, clinical isolate, blaNDM-1, Ambler B",256 µg/mL
same,MIC,"[13]; strain JW0451-2, BW25113ΔacrB::kan, AcrB-deficient efflux pump mutant",128 µg/mL
same,MIC,"[13]; strain Swiss 2 (AF45), clinical isolate (South Africa) ST101, mcr-1",128 µg/mL
same,MIC,"[13]; strain Swiss 13, clinical isolate (France) ST69, mcr-1",128 µg/mL
same,MIC,"[13]; strain Swiss 15, clinical isolate (Switzerland) ST446, mcr-1, blaCTX-M, Ambler A",128 µg/mL
same,MIC,"[13]; strain UTI89, clinical isolate from patient with acute bladder infection",128 µg/mL
same,HepG2 cell cytotoxicity (CC50),[14],>750 µM
